Here are results for 35 molecules from patent US11161846B2, “Substituted pyrazolo[4,3-b]pyridines and their use as GluN2B receptor modulators” (JANSSEN PHARMACEUTICA NV, priority 2019, dated 2021).

Molecules are shown by their SMILES. Where a name gives a salt, the structure may show the parent alone.

The target in the test is T1, human GluN1/GluN2B NMDA receptors (Homo sapiens, UniProt Q05586+Q13224).
T1 construct: expressed in transfected cells
T1 sequence (Q13224 27-1484, other chains not shown): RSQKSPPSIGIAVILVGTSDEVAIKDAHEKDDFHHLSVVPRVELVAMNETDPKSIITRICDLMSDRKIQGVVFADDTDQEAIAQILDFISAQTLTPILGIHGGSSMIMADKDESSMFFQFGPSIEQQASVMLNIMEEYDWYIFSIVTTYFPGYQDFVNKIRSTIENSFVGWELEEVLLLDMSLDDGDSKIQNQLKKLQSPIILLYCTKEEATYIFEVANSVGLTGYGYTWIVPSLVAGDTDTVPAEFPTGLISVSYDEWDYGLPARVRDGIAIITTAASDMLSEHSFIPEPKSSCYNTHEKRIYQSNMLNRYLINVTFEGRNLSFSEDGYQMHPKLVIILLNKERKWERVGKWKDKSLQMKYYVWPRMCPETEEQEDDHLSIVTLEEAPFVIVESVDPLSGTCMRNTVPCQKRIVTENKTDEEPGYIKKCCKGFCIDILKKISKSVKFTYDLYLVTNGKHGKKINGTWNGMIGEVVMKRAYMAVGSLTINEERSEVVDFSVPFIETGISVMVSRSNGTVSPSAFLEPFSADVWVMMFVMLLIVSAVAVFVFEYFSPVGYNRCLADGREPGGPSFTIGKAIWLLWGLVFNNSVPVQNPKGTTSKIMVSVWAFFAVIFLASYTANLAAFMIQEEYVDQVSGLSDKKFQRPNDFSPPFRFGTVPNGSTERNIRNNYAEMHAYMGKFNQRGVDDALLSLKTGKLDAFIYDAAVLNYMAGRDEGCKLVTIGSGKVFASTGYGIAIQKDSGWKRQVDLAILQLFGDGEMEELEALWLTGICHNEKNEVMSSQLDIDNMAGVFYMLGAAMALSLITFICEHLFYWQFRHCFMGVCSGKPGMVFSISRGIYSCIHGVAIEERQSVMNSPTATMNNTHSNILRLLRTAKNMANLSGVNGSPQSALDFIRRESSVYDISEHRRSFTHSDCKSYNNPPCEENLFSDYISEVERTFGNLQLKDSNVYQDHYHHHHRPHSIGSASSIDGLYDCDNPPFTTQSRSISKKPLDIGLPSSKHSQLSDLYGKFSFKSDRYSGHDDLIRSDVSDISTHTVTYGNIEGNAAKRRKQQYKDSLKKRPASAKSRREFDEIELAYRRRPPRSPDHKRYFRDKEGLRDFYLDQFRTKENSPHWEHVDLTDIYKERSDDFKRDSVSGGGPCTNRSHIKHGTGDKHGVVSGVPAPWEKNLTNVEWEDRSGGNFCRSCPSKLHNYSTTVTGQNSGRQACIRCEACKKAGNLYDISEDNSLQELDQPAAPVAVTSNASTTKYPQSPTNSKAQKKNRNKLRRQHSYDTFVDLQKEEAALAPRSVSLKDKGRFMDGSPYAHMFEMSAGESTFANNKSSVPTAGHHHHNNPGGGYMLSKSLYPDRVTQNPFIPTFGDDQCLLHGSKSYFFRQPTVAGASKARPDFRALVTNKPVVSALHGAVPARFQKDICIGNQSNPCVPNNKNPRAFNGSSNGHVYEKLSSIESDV
Kind of test: Calcium flux (FLIPR) assay on cloned human NR1/GluN2B ion channels expressed in mammalian cells, standard assay. In kind it is cell-based. The following applies: glutamate ~EC40 and 10 μM glycine, stable cell line with Tet-On induced expression. The gist of the method:
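Tet-On-induced stable mammalian line loaded with Calcium 5 dye (0.5 mM MgCl2 loading buffer), then assayed in pH 7.4 buffer with 137 mM NaCl, 4 mM KCl, 2 mM CaCl2. Compound was added for 5 min, then glutamate (~EC40) plus 10 µM glycine for 5 min. FLIPR fluorescence was normalized to control wells.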
(Calcium assays in cells follow changes in intracellular calcium, usually with a dye or a luminescent sensor.)
One may read the IC50 as the point on the concentration scale where inhibition reaches its midpoint. Take `OC(Cn1ncc2ncc(-c3cccc(C(F)(F)F)c3)cc21)C1CC1` (racemic) [Example 100, (RS)-1-Cyclopropyl-2-[6-[3-(trifluoromethyl)phenyl]pyrazolo[4,3-b]pyridin-1-yl]ethanol]: the IC50 stood at 290 nM.

For `CCN1C[C@H](Cn2ncc3ncc(-c4ccc(F)c(C(F)F)c4)cc32)OC1=O` [Example 133, (R)-5-[[6-[3-(Difluoromethyl)-4-fluoro-phenyl]pyrazolo[4,3-b]pyridin-1-yl]methyl]-3-ethyl-oxazolidin-2-one], the IC50 came to 204 nM.

For `CC(C)C(O)Cn1ncc2ncc(-c3cccc(C(F)(F)F)c3)cc21` (racemic) [Example 3, (RS)-3-Methyl-1-[6-[3-(trifluoromethyl)phenyl]pyrazolo[4,3-b]pyridin-1-yl]butan-2-ol], the IC50 turned out to be 567 nM.

In the case of `CCC(=O)Cn1ncc2ncc(-c3cccc(F)c3F)cc21` [Example 33, 1-[6-(2,3-Difluorophenyl)pyrazolo[4,3-b]pyridin-1-yl]butan-2-one], the IC50 stood at 46 nM.

For the molecule `O=C(Cn1ncc2ncc(-c3cccc(F)c3F)cc21)C1CC1` [Example 64, 1-Cyclopropyl-2-[6-(2,3-difluorophenyl)pyrazolo[4,3-b]pyridin-1-yl]ethanone], the IC50 is 37 nM.

`CC(C)C(=O)Cn1ncc2ncc(-c3cccc(C(F)(F)F)c3)cc21` [Example 2, 3-Methyl-1-[6-[3-(trifluoromethyl)phenyl]pyrazolo[4,3-b]pyridin-1-yl]butan-2-one]: the IC50 turned out to be 61 nM.

As to `CC(=O)Cn1ncc2ncc(-c3ccc(F)c(C(F)F)c3)cc21` [Example 23, 1-[6-[3-(Difluoromethyl)-4-fluoro-phenyl]pyrazolo[4,3-b]pyridin-1-yl]propan-2-one], the IC50 was 14 nM.

For `Cc1ccc(-c2cnc3cnn(CC(=O)C4CC4)c3c2)s1` [Example 56, 1-Cyclopropyl-2-[6-(5-methyl-2-thienyl)pyrazolo[4,3-b]pyridin-1-yl]ethanone], the IC50 came out at 15 nM.

On to `CC[S+]([O-])Cn1ncc2ncc(-c3ccc(F)c(C(F)F)c3)cc21` (single isomer, unassigned) [Example 84, (S*)-6-(3-(Difluoromethyl)-4-fluorophenyl)-1-((ethylsulfinyl)methyl)-1H-pyrazolo[4,3-b]pyridine], for which the IC50 was 29 nM.

With `CCC(=O)Cn1ncc2ncc(-c3cc(F)cc(F)c3)cc21` [Example 1, 1-[6-(3,5-Difluorophenyl)pyrazolo[4,3-b]pyridin-1-yl]butan-2-one], the IC50 was 19 nM.

As to `CC1(Cn2ncc3ncc(-c4ccc(F)c(C(F)F)c4)cc32)COC1` [Example 110, 6-[3-(Difluoromethyl)-4-fluoro-phenyl]-1-[(3-methyloxetan-3-yl)methyl]pyrazolo[4,3-b]pyridine], the IC50 was determined as 2060 nM.

Take `O=C(Cn1ncc2ncc(-c3ccc(F)c(C(F)F)c3)cc21)c1cccnc1` [Example 16, 2-(6-(3-(Difluoromethyl)-4-fluorophenyl)-1H-pyrazolo[4,3-b]pyridin-1-yl)-1-(pyridin-3-yl)ethan-1-one]: the 50% inhibitory concentration (IC50) was 90 nM.

`O=C(Cn1ncc2ncc(-c3ccc(F)c(C(F)F)c3)cc21)c1cnccn1` [Example 142, 2-(6-(3-(Difluoromethyl)-4-fluorophenyl)-1H-pyrazolo[4,3-b]pyridin-1-yl)-1-(pyrazin-2-yl)ethan-1-one]: the 50% inhibitory concentration (IC50) amounted to 74 nM.

Regarding `CC[S+]([O-])Cn1ncc2ncc(-c3cccc(F)c3)cc21` (racemic) [Example 80, (RS)-1-(Ethylsulfinylmethyl)-6-(3-fluorophenyl)pyrazolo[4,3-b]pyridine], the IC50 worked out at 823 nM.

For the molecule `Cc1cccc(-c2cnc3cnn(CC(=O)C4CC4)c3c2)c1` [Example 60, 1-Cyclopropyl-2-[6-(m-tolyl)pyrazolo[4,3-b]pyridin-1-yl]ethanone], the IC50 is 8 nM.

Regarding `O=C(Cn1ncc2ncc(-c3ccc(F)c(C(F)F)c3)cc21)c1ccncc1` [Example 139, 2-[6-[3-(Difluoromethyl)-4-fluoro-phenyl]pyrazolo[4,3-b]pyridin-1-yl]-1-(4-pyridyl)ethanone], the IC50 is 118 nM.

`Cc1cc(-c2cnc3cnn(CC(=O)C(C)C)c3c2)ccc1F` [Example 7, 1-[6-(4-Fluoro-3-methyl-phenyl)pyrazolo[4,3-b]pyridin-1-yl]-3-methyl-butan-2-one]: the concentration for half-maximal inhibition (IC50) came to 21 nM.

Turning to `CC(C)C(O)Cn1ncc2ncc(-c3ccccc3)cc21` (racemic) [Example 96, (RS)-3-Methyl-1-(6-phenylpyrazolo[4,3-b]pyridin-1-yl)butan-2-ol], the IC50 is 1530 nM.

With `O=C(Cn1ncc2ncc(-c3ccc(F)c(Cl)c3)cc21)C1CC1` [Example 68, 2-[6-[3-Chloro-4-fluoro-phenyl)pyrazolo[4,3-b]pyridin-1-yl]-1-cyclopropyl-ethanone], the IC50 came out at 7 nM.

In the case of `O=C(Cn1ncc2ncc(-c3ccc(Cl)c(C(F)(F)F)c3)cc21)C1CC1` [Example 75, 2-[6-[4-Chloro-3-(trifluoromethyl)phenyl]pyrazolo[4,3-b]pyridin-1-yl]-1-cyclopropyl-ethanone], the IC50 was found to be 76 nM.

`O=C(Cn1ncc2ncc(-c3ccccc3F)cc21)C1CC1` [Example 58, 1-Cyclopropyl-2-[6-(2-fluorophenyl)pyrazolo[4,3-b]pyridin-1-yl]ethanone]: the IC50 is 148 nM.

`O=C1NC[C@@H](Cn2ncc3ncc(-c4ccc(F)c(C(F)F)c4)cc32)O1` [Example 21, (S)-5-[[6-[3-(Difluoromethyl)-4-fluoro-phenyl]pyrazolo[4,3-b]pyridin-1-yl]methyl]oxazolidin-2-one]: the half-inhibitory concentration (IC50) worked out at 1840 nM.

`CCC(F)(F)Cn1ncc2ncc(-c3ccc(F)c(OC(F)F)c3)cc21` [Example 99, 1-(2,2-Difluorobutyl)-6-[3-(difluoromethoxy)-4-fluoro-phenyl]pyrazolo[4,3-b]pyridine]: the IC50 worked out at 213 nM.

For the molecule `CN1CCC(Cn2ncc3ncc(-c4ccc(F)c(C(F)F)c4)cc32)C1=O` (racemic) [Example 116, (RS)-3-[[6-[3-(Difluoromethyl)-4-fluoro-phenyl]pyrazolo[4,3-b]pyridin-1-yl]methyl]-1-methyl-pyrrolidin-2-one], the IC50 came out at 303 nM.

As to `OC(Cn1ncc2ncc(-c3cc(F)c(F)c(F)c3)cc21)C1CC1` (racemic) [Example 10, (R/S)-1-Cyclopropyl-2-[6-(3,4,5-trifluorophenyl)pyrazolo[4,3-b]pyridin-1-yl]ethanol], the half-maximal inhibitory concentration (IC50) was found to be 696 nM.

`O=C(Cn1ncc2ncc(-c3cccc(Cl)c3F)cc21)C1CC1` [Example 67, 2-[6-(3-Chloro-2-fluoro-phenyl)pyrazolo[4,3-b]pyridin-1-yl]-1-cyclopropyl-ethanone]: the IC50 was 16 nM.

Turning to `CC(F)(F)c1cc(-c2cnc3cnn(CC4CNC(=O)O4)c3c2)ccc1F` (racemic) [Example 127, (RS)-5-[[6-[3-(1,1-Difluoroethyl)-4-fluoro-phenyl]pyrazolo[4,3-b]pyridin-1-yl]methyl]oxazolidin-2-one], the IC50 is 973 nM.

In the case of `Fc1ccc(-c2cnc3cnn(CC4CCOC4)c3c2)cc1C(F)F` (racemic) [Example 113, (RS)-6-[3-(Difluoromethyl)-4-fluoro-phenyl]-1-(tetrahydrofuran-3-ylmethyl)pyrazolo[4,3-b]pyridine], the IC50 was 23 nM.

Consider `CCC(=O)Cn1ncc2ncc(-c3ccc(Cl)c(OC(F)F)c3)cc21` [Example 41, 1-[6-[4-Chloro-3-(difluoromethoxy)phenyl]pyrazolo[4,3-b]pyridin-1-yl]butan-2-one], for which the IC50 was determined as 21 nM.

In the case of `COCCC(O)Cn1ncc2ncc(-c3cccc(C(F)(F)F)c3)cc21` (racemic) [Example 90, (RS)-4-Methoxy-1-[6-[3-(trifluoromethyl)phenyl]pyrazolo[4,3-b]pyridin-1-yl]butan-2-ol], the IC50 came out at 1420 nM.

In the case of `CCC(=O)Cn1ncc2ncc(-c3ccc(F)c(OC(F)F)c3)cc21` [Example 40, 1-[6-[3-(Difluoromethoxy)-4-fluoro-phenyl]pyrazolo[4,3-b]pyridin-1-yl]butan-2-one], the IC50 came to 11 nM.

`CC(C)C(O)Cn1ncc2ncc(-c3cc(F)c(F)c(F)c3)cc21` (racemic) [Example 97, (RS)-3-Methyl-1-[6-(3,4,5-trifluorophenyl)pyrazolo[4,3-b]pyridin-1-yl]butan-2-ol]: the IC50 amounted to 591 nM.

For `CN1CC[C@@H](Cn2ncc3ncc(-c4ccc(F)c(C(F)F)c4)cc32)C1=O` [Example 117, (S)-3-[[6-[3-(Difluoromethyl)-4-fluoro-phenyl]pyrazolo[4,3-b]pyridin-1-yl]methyl]-1-methyl-pyrrolidin-2-one], the 50% inhibitory concentration (IC50) amounted to 1210 nM.

For the molecule `CCC(=O)Cn1ncc2ncc(-c3ccc(F)c(C)c3)cc21` [Example 32, 1-[6-(4-Fluoro-3-methyl-phenyl)pyrazolo[4,3-b]pyridin-1-yl]butan-2-one Trifluoroacetate Salt], the IC50 was found to be 12 nM.

As to `CCC(=O)Cn1ncc2ncc(-c3ccc(Cl)s3)cc21` [Example 27, 1-[6-(5-Chloro-2-thienyl)pyrazolo[4,3-b]pyridin-1-yl]butan-2-one], the IC50 is 13 nM.
